Results published in patent US7879848B2, “Dipeptidyl Peptidase-IV inhibiting compounds, method of preparing the same, and pharmaceutical compositions containing the same as an active agent” (LG Life Sciences, Ltd., priority 2005, dated 2011).

What follows are compounds tested against T1, Dipeptidyl Peptidase-IV (DPP-IV) (Homo sapiens, UniProt P27487) (assay: Measurement of DPP-IV Activity-Inhibiting Ability (fluorescent substrate Ac-Gly-Pro-AFC)). Conditions: 25° C., 50 mmol HEPES (pH 7.4), DP-IV 7.1 nM, enzyme reaction for 1 hour.
T1 construct: made in house
Type: biochemical
Text: Dipeptidyl Peptidase-IV (DPP-IV), known as serine protease, was obtained by a modification of the known method (Tanaka T. et al, Proc. Natl. Acad. Sci. USA, (1994) 91, 3082-3086), which comprises cloning, purification by use of Baculo-Virus and activation steps. DPP-IV was used to test the pharmaceutical efficacy of candidate inhibitors as follows. The cloned DP-IV was expressed in Baculo-Virus, which was purified by nickel column and then subjected to dialysis. The inhibitors synthesized in Examples were tested to determine the binding activity there of using a fluorescent substrate, Ac-Gly-Pro-AFC. Enzyme reactions were conducted for various concentrations of inhibitors, using 100 µM Ac-Gly-Pro-AFC at 25° C. in a buffer solution containing 50 mmol HEPES (pH 7.4), with the concentration of DP-IV being 7.1 nM. […] As the fluorescent spectrometer, Spectra MAX GeminiXS fluorescent spectrometer from Molecular Device Co. was used and the excitation frequency and emission frequency were set to 400 nm and 505 nm, respectively.

T1 sequence (P27487 whole entry): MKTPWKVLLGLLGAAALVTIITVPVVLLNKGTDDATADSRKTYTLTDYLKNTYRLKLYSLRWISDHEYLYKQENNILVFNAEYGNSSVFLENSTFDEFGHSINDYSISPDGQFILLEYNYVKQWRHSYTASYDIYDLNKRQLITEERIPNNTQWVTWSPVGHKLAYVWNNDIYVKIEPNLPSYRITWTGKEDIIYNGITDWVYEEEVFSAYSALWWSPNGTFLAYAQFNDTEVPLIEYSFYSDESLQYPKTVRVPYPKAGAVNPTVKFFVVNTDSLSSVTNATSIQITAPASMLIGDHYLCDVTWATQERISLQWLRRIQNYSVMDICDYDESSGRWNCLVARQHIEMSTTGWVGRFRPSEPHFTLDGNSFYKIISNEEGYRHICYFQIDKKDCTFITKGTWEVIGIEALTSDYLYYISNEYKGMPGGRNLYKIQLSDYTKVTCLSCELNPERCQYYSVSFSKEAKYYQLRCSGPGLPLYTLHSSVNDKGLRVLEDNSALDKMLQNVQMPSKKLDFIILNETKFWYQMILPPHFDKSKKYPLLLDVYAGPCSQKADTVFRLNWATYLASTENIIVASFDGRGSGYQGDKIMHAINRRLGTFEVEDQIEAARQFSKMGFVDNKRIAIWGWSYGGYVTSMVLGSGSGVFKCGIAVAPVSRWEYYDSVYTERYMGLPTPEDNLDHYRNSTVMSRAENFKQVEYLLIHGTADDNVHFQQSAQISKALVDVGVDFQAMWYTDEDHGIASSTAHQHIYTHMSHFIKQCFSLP

| Structure (SMILES) | IC50 [µM] |
| --- | --- |
| C[C@@H]1CCC(=O)N(C[C@@H](N)CC(=O)N2CCc3c(nc(-c4cccs4)nc3C(F)(F)F)C2)C1 [Ex. 62, (5R)-1-{(2S)-2-amino-4-oxo-4-[2-(2-thienyl)-4-(trifluoromethyl)-5,8-dihydropyrido[3,4-d]pyrimidin-7(6H)-yl]butyl}-5-methylpiperidin-2-one] | 0.032 |
| N[C@@H](CC(=O)N1CCc2c(nc(-c3cccs3)nc2C(F)(F)F)C1)CN1CC(F)(F)CCC1=O [Ex. 63, 1-{(2S)-2-amino-4-oxo-4-[2-(2-thienyl)-4-(trifluoromethyl)-5,8-dihydropyrido[3,4-d]pyrimidin-7(6H)-yl]butyl}-5,5-difluoropiperidin-2-one] | 0.035 |
| C[C@@H]1CCC(=O)N(C[C@@H](N)CC(=O)N2CCc3c(nc(-c4ccco4)nc3C(F)(F)F)C2)C1 [Ex. 64, (5R)-1-{(2S)-2-amino-4-[2-(2-furyl)-4-(trifluoromethyl)-5,8-dihydropyrido[3,4-d]pyrimidin-7(6H)-yl]-4-oxobutyl}-5-methylpiperidin-2-one] | 0.005 |
| N[C@@H](CC(=O)N1CCc2c(nc(-c3ccco3)nc2C(F)(F)F)C1)CN1CC(F)(F)CCC1=O [Ex. 65, 1-{(2S)-2-amino-4-[2-(2-furyl)-4-(trifluoromethyl)-5,8-dihydropyrido[3,4-d]pyrimidin-7(6H)-yl]-4-oxobutyl}-5,5-difluoropiperidin-2-one] | 0.012 |
| C[C@@H]1CCC(=O)N(C[C@@H](N)CC(=O)N2CCc3c(nc(-c4ccoc4)nc3C(F)(F)F)C2)C1 [Ex. 66, (5R)-1-{(2S)-2-amino-4-[2-(3-furyl)-4-(trifluoromethyl)-5,8-dihydropyrido[3,4-d]pyrimidin-7(6H)-yl]-4-oxobutyl}-5-methylpiperidin-2-one] | 0.016 |
| N[C@@H](CC(=O)N1CCc2c(nc(-c3ccoc3)nc2C(F)(F)F)C1)CN1CC(F)(F)CCC1=O [Ex. 67, 1-{(2S)-2-amino-4-[2-(3-furyl)-4-(trifluoromethyl)-5,8-dihydropyrido[3,4-d]pyrimidin-7(6H)-yl]-4-oxobutyl}-5,5-difluoropiperidin-2-one] | 0.01 |
| C[C@@H]1CCC(=O)N(C[C@@H](N)CC(=O)N2CCc3c(nc(-c4ccc[nH]4)nc3C(F)(F)F)C2)C1 [Ex. 68, (5R)-1-{(2S)-2-amino-4-oxo-4-[2-(1H-pyrrol-2-yl)-4-(trifluoromethyl)-5,8-dihydropyrido[3,4-d]pyrimidin-7(6H)-yl]butyl}-5-methylpiperidin-2-one] | 0.072 |
| N[C@@H](CC(=O)N1CCc2c(nc(-c3ccc[nH]3)nc2C(F)(F)F)C1)CN1CC(F)(F)CCC1=O [Ex. 69, 1-{(2S)-2-amino-4-oxo-4-[2-(1H-pyrrol-2-yl)-4-(trifluoromethyl)-5,8-dihydropyrido[3,4-d]pyrimidin-7(6H)-yl]butyl}-5,5-difluoropiperidin-2-one] | 0.055 |
| C[C@@H]1CCC(=O)N(C[C@@H](N)CC(=O)N2CCc3c(nc(-c4cccnc4)nc3C(F)(F)F)C2)C1 [Ex. 70, (5R)-1-{(2S)-2-amino-4-oxo-4-[2-pyridin-3-yl-4-(trifluoromethyl)-5,8-dihydropyrido[3,4-d]pyrimidin-7(6H)-yl]butyl}-5-methylpiperidin-2-one] | 0.008 |
| N[C@@H](CC(=O)N1CCc2c(nc(-c3cccnc3)nc2C(F)(F)F)C1)CN1CC(F)(F)CCC1=O [Ex. 71, 1-{(2S)-2-amino-4-oxo-4-[2-pyridin-3-yl-4-(trifluoromethyl)-5,8-dihydropyrido[3,4-d]pyrimidin-7(6H)-yl]butyl}-5,5-difluoropiperidin-2-one] | 0.005 |
| CCc1nc2c(c(C(F)(F)F)n1)CCN(C(=O)C[C@H](N)CN1CC(F)(F)CCC1=O)C2 [Ex. 72, 1-{(2S)-2-amino-4-[2-ethyl-4-(trifluoromethyl)-5,8-dihydropyrido[3,4-d]pyrimidin-7(6H)-yl]-4-oxobutyl}-5,5-difluoropiperidin-2-one] | 0.023 |
| CCc1nc2c(c(C(F)(F)F)n1)CCN(C(=O)C[C@H](N)CN1C[C@H](C)OCC1=O)C2 [Ex. 73, (6S)-4-{(2S)-2-amino-4-[2-ethyl-4-(trifluoromethyl)-5,8-dihydropyrido[3,4-d]pyrimidin-7(6H)-yl]-4-oxobutyl}-6-methylmorpholine-3-one] | 0.027 |
| CC(C)c1nc2c(c(C(F)(F)F)n1)CCN(C(=O)C[C@H](N)CN1CC(F)(F)CCC1=O)C2 [Ex. 74, 1-{(2S)-2-amino-4-[2-isopropyl-4-(trifluoromethyl)-5,8-dihydropyrido[3,4-d]pyrimidin-7(6H)-yl]-4-oxobutyl}-5,5-difluoropiperidin-2-one] | 0.026 |
| CC(C)c1nc2c(c(C(F)(F)F)n1)CCN(C(=O)C[C@H](N)CN1C[C@H](C)CCC1=O)C2 [Ex. 75, 1-{(2S)-2-amino-4-[2-isopropyl-4-(trifluoromethyl)-5,8-dihydropyrido[3,4-d]pyrimidin-7(6H)-yl]-4-oxobutyl}-5-methylpiperidin-2-one] | 0.016 |
| CC(C)c1nc2c(c(C(F)(F)F)n1)CCN(C(=O)C[C@H](N)CN1C[C@H](C)OCC1=O)C2 [Ex. 76, (6S)-4-{(2S)-2-amino-4-[2-isopropyl-4-(trifluoromethyl)-5,8-dihydropyrido[3,4-d]pyrimidin-7(6H)-yl]-4-oxobutyl}-6-methylmorpholine-3-one] | 0.03 |
| C[C@@H]1CN(C[C@@H](N)CC(=O)N2CCn3c(nnc3C(F)(F)F)C2)C(=O)CO1 [Ex. 77, (6R)-4-{(2S)-2-amino-4-oxo-4-[3-(trifluoromethyl)-5,6-dihydro[1,2,4]triazolo[4,3-a]pyrazin-7(8H)-yl]butyl}-6-methylmorpholine-3-one] | 0.094 |
| C[C@H]1CN(C[C@@H](N)CC(=O)N2CCn3c(nnc3C(F)(F)F)C2)C(=O)CO1 [Ex. 78, (6S)-4-{(2S)-2-amino-4-oxo-4-[3-(trifluoromethyl)-5,6-dihydro[1,2,4]triazolo[4,3-a]pyrazin-7(8H)-yl]butyl}-6-methylmorpholine-3-one] | 0.163 |
| C[C@H]1CCC(=O)N(C[C@@H](N)CC(=O)N2CCn3c(nnc3C(F)(F)F)C2)C1 [Ex. 79, (5S)-1-{(2S)-2-amino-4-oxo-4-[3-(trifluoromethyl)-5,6-dihydro[1,2,4]triazolo[4,3-a]pyrazin-7(8H)-yl]butyl}-5-methylpiperidin-2-one] | 0.385 |
| C[C@H]1CCC(=O)N(C[C@@H](N)CC(=O)N2CCc3c(nc(C(F)(F)F)nc3C(F)(F)F)C2)C1 [Ex. 80] | 8.85 |
| Cc1nc2c(c(C(F)(F)F)n1)CCN(C(=O)C[C@H](N)CN1C[C@H](C)CCC1=O)C2 [Ex. 81, (5R)-1-{(2S)-2-amino-4-[2-methyl-4-(trifluoromethyl)-5,8-dihydropyrido[3,4-d]pyrimidin-7(6H)-yl]-4-oxobutyl}-5-methylpiperidin-2-one] | 0.01 |
| C[C@@H]1CCC(=O)N(C[C@@H](N)CC(=O)N2CCc3c(nc(C(F)(F)F)nc3C(F)(F)F)C2)C1 [Ex. 82, (5R)-1-{(2S)-2-amino-4-[2,4-bis(trifluoromethyl)-5,8-dihydropyrido[3,4-d]pyrimidin-7(6H)-yl]-4-oxobutyl}-5-methylpiperidin-2-one] | 0.016 |
| C[C@H]1CN(C[C@@H](N)CC(=O)N2CCc3c(nc(C(F)(F)F)nc3C(F)(F)F)C2)C(=O)CO1 [Ex. 84] | 0.038 |
| Cc1nc2c(c(C(F)(F)F)n1)CCN(C(=O)C[C@H](N)CN1CC(F)(F)CCC1=O)C2 [Ex. 85, 1-{(2S)-2-amino-4-[2-methyl-4-(trifluoromethyl)-5,8-dihydropyrido[3,4-d]pyrimidin-7(6H)-yl]-4-oxobutyl}-5,5-difluoropiperidin-2-one] | 0.016 |
| Cc1nc2c(c(C(F)(F)F)n1)CCN(C(=O)C[C@H](N)CN1C[C@H](C)OCC1=O)C2 [Ex. 86] | 0.03 |
| N[C@@H](CC(=O)N1CCc2c(ncnc2C(F)(F)F)C1)CN1CC(F)(F)CCC1=O [Ex. 87, 1-{(2S)-2-amino-4-oxo-4-[4-(trifluoromethyl)-5,8-dihydropyrido[3,4-d]pyrimidin-7(6H)-yl]butyl}-5,5-difluoropiperidin-2-one] | 0.029 |
| C[C@H]1CN(C[C@@H](N)CC(=O)N2CCc3c(ncnc3C(F)(F)F)C2)C(=O)CO1 [Ex. 88, (6S)-4-{(2S)-2-amino-4-oxo-4-[4-(trifluoromethyl)-5,8-dihydropyrido[3,4-d]pyrimidin-7(6H)-yl]butyl}-6-methylmorpholine-3-one] | 0.048 |
| N[C@@H](CC(=O)N1CCn2c(nnc2C(F)(F)C(F)(F)F)C1)CN1CC(F)(F)CCC1=O [Ex. 89, 1-{(2S)-2-amino-4-oxo-4-[3-(pentafluoroethyl)-5,6-dihydro[1,2,4]triazolo[4,3-a]pyrazin-7(8H)-yl]butyl}-5,5-difluoropiperidin-2-one] | 0.214 |
| C[C@H]1CN(C[C@@H](N)CC(=O)N2CCn3c(nnc3C(F)(F)C(F)(F)F)C2)C(=O)CO1 [Ex. 90, (6S)-4-{(2S)-2-amino-4-oxo-4-[3-(pentafluoroethyl)-5,6-dihydro[1,2,4]triazolo[4,3-a]pyrazin-7(8H)-yl]butyl}-6-methylmorpholine-3-one] | 0.356 |
| CC1CN(C[C@@H](N)CC(=O)N2CCc3c(nc(C(F)(F)F)nc3C(F)(F)F)C2)C(=O)CS1 (stereo partly drawn) [Ex. 91, 4-{(2S)-2-amino-4-[2,4-bis(trifluoromethyl)-5,8-dihydropyrido[3,4-d]pyrimidin-7(6H)-yl]-4-oxobutyl}-6-methylthiomorpholin-3-one] | 0.085 |
